This is an account of results in patent US9089486B2, “Process for the preparation of a pharmaceutical composition comprising ezetimibe” (LEK PHARMACEUTICALS D.D., priority 2009, dated 2015).

The structures appear in SMILES notation. Read-outs that look alike come from different tables or passages of the source.

Data set [1] can be described thus: Particle size of ezetimibe by Malvern Mastersizer. Format: physicochemical. To be noted: ezetimibe particles, lactose in the blend dissolved. From the text:
After mixing of blend 2 in a high shear mixer, a good particle distribution could be reached. The size of the ezetimibe particles was not essentially changed.

For data set [2] the following is noted: cited from earlier work; for solubility in ethanol, methanol, and acetone: organic solvents.
The conditions of data set [3]: ambient temperature; cited from earlier work.

In the case of `O=C1[C@H](CC[C@H](O)c2ccc(F)cc2)[C@@H](c2ccc(O)cc2)N1c1ccc(F)cc1` [Ezetimibe, ezetimibe], in data set [1], the “Particle size d(0.1)” value amounted to 0.43 μm, the “Particle size d(0.5)” value stood at 7.54 μm and the “Particle size d(0.9)” value is reported as 16.87 μm. In addition, in data set [2], the “solubility in ethanol, methanol, and acetone” value was “freely to very soluble”; the solubility in water entry is on record as “practically insoluble”. In addition, in data set [2] (listed as ezetimibe), the “solubility in ethanol, methanol, and acetone” value is recorded as “soluble”; the solubility in water entry is reported as “poorly soluble”. Moreover, in data set [3], the stability entry is listed as “stable”.
